Source: PubChem BioAssay AID328 (DTP/NCI, 2004)
Where “and” joins values, the source holds several entries; their conditions need not be identical. Equal entries are not always repeated. Inconclusive results and toxic doses are left out.

Test system: BDF1 mice, P388 leukemia ip, median survival T/C
Assay: NCI In Vivo Anticancer Drug Screen. Data for tumor model P388 Leukemia (intraperitoneal) in B6D2F1 (BDF1) mice
Settings: endpoint: median survival time, higher = longer survival
Procedure, shortened: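 Mice carrying the transplantable tumour receive compound or vehicle. Survival is followed in each arm, and the treated measure is divided by the vehicle measure.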

[1] = dose: 50.0 mg/kg/injection, schedule: Q04DX003 (ip), vehicle: Klucel (hydroxypropylcellulose) (HPC)
[2] = dose: 100.0 mg/kg/injection, schedule: Q04DX003 (ip), vehicle: Klucel (hydroxypropylcellulose) (HPC)
[3] = dose: 200.0 mg/kg/injection, schedule: Q04DX003 (ip), vehicle: Klucel (hydroxypropylcellulose) (HPC)
[4] = dose: 50.0 mg/kg/injection, schedule: Q01DX009 (ip), vehicle: saline with Tween-80
[5] = dose: 100.0 mg/kg/injection, schedule: Q01DX009 (ip), vehicle: saline with Tween-80
[6] = dose: 200.0 mg/kg/injection, schedule: Q01DX009 (ip), vehicle: saline with Tween-80

Structure (SMILES): CC(C)(C)/C=N/Nc1ccc([N+](=O)[O-])cc1[N+](=O)[O-]
- T/C [1]: 104 % of control
- T/C (dose: 100.0 mg/kg/injection, schedule: Q01DX009 (ip), vehicle: Klucel (hydroxypropylcellulose) (HPC)): 100 % of control
- T/C [2]: 104 % of control
- T/C (dose: 200.0 mg/kg/injection, schedule: Q01DX009 (ip), vehicle: Klucel (hydroxypropylcellulose) (HPC)): 100 % of control
- T/C [3]: 109 % of control
- T/C (dose: 400.0 mg/kg/injection, schedule: Q01DX009 (ip), vehicle: Klucel (hydroxypropylcellulose) (HPC)): 95 % of control

Structure (SMILES): CCOC(=O)N1CCc2cc(OC)c(OC)cc2C1Cc1ccc(OC)c(OC)c1 (centres undefined)
- T/C (dose: 50.0 mg/kg/injection, schedule: Q01DX005 (ip), vehicle: saline with Tween-80): 92 % of control
- T/C (dose: 100.0 mg/kg/injection, schedule: Q01DX005 (ip), vehicle: saline with Tween-80): 105 % of control
- T/C (dose: 200.0 mg/kg/injection, schedule: Q01DX005 (ip), vehicle: saline with Tween-80): 92 % of control

Structure (SMILES): CC(C)c1cccc(OS(=O)(=O)c2ccccc2[N+](=O)[O-])c1
- T/C (dose: 100.0 mg/kg/injection, schedule: Q04DX003 (ip), vehicle: saline sonified): 100 % of control
- T/C (dose: 200.0 mg/kg/injection, schedule: Q04DX003 (ip), vehicle: saline sonified): 100 % of control
- T/C (dose: 400.0 mg/kg/injection, schedule: Q04DX003 (ip), vehicle: saline sonified): 100 % of control

Structure (SMILES): CC(C)=CCC/C(C)=C/CN1C(=O)CC(C)=C(C)C1=O
- T/C (dose: 100.0 mg/kg/injection, schedule: Q04DX003 (ip), vehicle: saline with Tween-80): 100 % of control
- T/C (dose: 200.0 mg/kg/injection, schedule: Q04DX003 (ip), vehicle: saline with Tween-80): 100 % of control
- T/C (dose: 400.0 mg/kg/injection, schedule: Q04DX003 (ip), vehicle: saline with Tween-80): 104 % of control

Structure (SMILES): c1ccc(-c2nc3ccccc3nc2-c2ccc(Cc3ccc(-c4nc5ccccc5nc4-c4ccccc4)cc3)cc2)cc1
- T/C [4]: 88 % of control
- T/C [5]: 103 % of control
- T/C [6]: 88 % of control

Structure (SMILES): [Na+]
- T/C (dose: 3.0 mg/kg/injection, schedule: Q01DX009 (ip), vehicle: saline): 104 % of control
- T/C (dose: 6.0 mg/kg/injection, schedule: Q01DX009 (ip), vehicle: saline): 95 % of control
- T/C (dose: 12.0 mg/kg/injection, schedule: Q01DX009 (ip), vehicle: saline): 104 % of control
- T/C (dose: 12.5 mg/kg/injection, schedule: Q04DX003 (ip), vehicle: saline): 109 % of control
- T/C (dose: 25.0 mg/kg/injection, schedule: Q04DX003 (ip), vehicle: saline): 95 % of control

Structure (SMILES): Cc1cc(C)c[n+](C2=C([O-])C(=O)C([n+]3cc(C)cc(C)c3)=C([O-])C2=O)c1
- T/C [4]: 97 % of control
- T/C [5]: 97 % of control
- T/C [6]: 95 % of control

Structure (SMILES): CC(=O)OC1CCC2(C)C3CCC4(C)C(O)CCC4C3CC(O)C2(O)C1 (centres undefined)
- T/C (dose: 50.0 mg/kg/injection, schedule: Q01DX009 (ip), vehicle: saline): 103 % of control
- T/C (dose: 100.0 mg/kg/injection, schedule: Q01DX009 (ip), vehicle: saline): 88 % of control
- T/C (dose: 200.0 mg/kg/injection, schedule: Q01DX009 (ip), vehicle: saline): 107 % of control

Structure (SMILES): COc1cc(N(CCCl)CCCl)c(OC)cc1/C=N/NC(=O)CC(N)C(=O)O (centres undefined)
- T/C (dose: 16.0 mg/kg/injection, schedule: Q01DX009 (ip), vehicle: Klucel (hydroxypropylcellulose) (HPC)): 153 % of control
- T/C (dose: 25.0 mg/kg/injection, schedule: Q01DX009 (ip), vehicle: Klucel (hydroxypropylcellulose) (HPC)): 150 % of control and 179 % of control
- T/C (dose: 35.0 mg/kg/injection, schedule: Q01DX009 (ip), vehicle: Klucel (hydroxypropylcellulose) (HPC)): 153 % of control
- T/C (dose: 50.0 mg/kg/injection, schedule: Q01DX009 (ip), vehicle: Klucel (hydroxypropylcellulose) (HPC)): 177 % of control
- T/C (dose: 65.0 mg/kg/injection, schedule: Q04DX003 (ip), vehicle: Klucel (hydroxypropylcellulose) (HPC)): 181 % of control
- T/C [2]: 235 % of control
- T/C (dose: 132.0 mg/kg/injection, schedule: Q04DX003 (ip), vehicle: Klucel (hydroxypropylcellulose) (HPC)): 240 % of control and 247 % of control
- T/C [3]: 265 % of control and 272 % of control and 180 % of control
- T/C (dose: 400.0 mg/kg/injection, schedule: Q04DX003 (ip), vehicle: Klucel (hydroxypropylcellulose) (HPC)): 100 % of control

Structure (SMILES): CCCCCCCCN(C)N=Nc1ccc(Cl)cc1C(=O)O
- T/C [5]: 94 % of control
- T/C [6]: 116 % of control
- T/C (dose: 400.0 mg/kg/injection, schedule: Q01DX009 (ip), vehicle: saline with Tween-80): 88 % of control

Structure (SMILES): CC(=O)Nc1ccc([N+](=O)[O-])c(NC(C)=O)n1
- T/C [1]: 110 % of control
- T/C [2]: 105 % of control
- T/C [3]: 100 % of control
